Source: patent publication US20250197372A1 (priority 2020, published 2025)

Target: T1, recombinant human GBA (beta-glucocerebrosidase) (Homo sapiens, UniProt P04062)
T1 sequence (P04062 40-536): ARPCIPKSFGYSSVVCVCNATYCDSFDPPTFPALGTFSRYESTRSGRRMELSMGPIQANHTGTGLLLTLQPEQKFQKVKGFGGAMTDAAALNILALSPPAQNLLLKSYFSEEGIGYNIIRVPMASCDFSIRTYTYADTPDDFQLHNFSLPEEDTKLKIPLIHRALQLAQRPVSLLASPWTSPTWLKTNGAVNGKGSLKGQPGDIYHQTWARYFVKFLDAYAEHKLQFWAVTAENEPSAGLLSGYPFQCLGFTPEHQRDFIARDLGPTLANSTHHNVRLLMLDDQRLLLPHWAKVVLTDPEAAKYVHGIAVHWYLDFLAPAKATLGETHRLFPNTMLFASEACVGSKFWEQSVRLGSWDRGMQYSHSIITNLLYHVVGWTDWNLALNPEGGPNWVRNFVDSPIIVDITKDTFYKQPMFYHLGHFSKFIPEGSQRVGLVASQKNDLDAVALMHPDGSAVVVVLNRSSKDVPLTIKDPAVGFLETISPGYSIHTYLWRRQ
Experiment: Beta-glucocerebrosidase (GBA, glucosylceramidase) assay (4-methylumbelliferyl-beta-D-pyranoside substrate, fluorescence)
Assay type: biochemical
In short: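 IC50 by four-parameter fit of percent inhibition, with product fluorescence (365/440 nm) read after a glycine/NaOH pH 10 stop. Compound and commercial recombinant human enzyme were incubated 60 min at 37 °C before a further 60 min at 37 °C with 4-methylumbelliferyl-beta-D-pyranoside substrate.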

CS(=O)(=O)Nc1ccc(NCCCCCCN2C[C@H](O)[C@@H](O)[C@H](O)[C@H]2CO)c([N+](=O)[O-])c1 [Compound 1300, N-[3-nitro-4-({6-[(2R,3R,4R,5S)-3,4,5-trihydroxy-2-(hydroxy-methyl)piperidin-1-yl]hexyl}amino)phenyl]methanesulfonamide]
IC50: 26 nM

Cc1nc2cc(-c3ncccn3)ccc2n1CCCCCCN1C[C@H](O)[C@@H](O)[C@H](O)[C@H]1CO [Compound 1339, (2R,3R,4R,5S)-2-(hydroxymethyl)-1-{6-[2-methyl-5-(pyrimidin-2-yl)-1H-1,3-benzodiazol-1-yl]hexyl}piperidine-3,4,5-triol]
IC50: 626 nM
